How the values were obtained:
[1] = Negative allosteric modulator activity at P-gp in human LCC6MDR cells overexpressing P-gp assessed as reversal of P-gp mediated paclitaxel resistance activity incubated for 5 days by MTS assay
[2] = Negative allosteric modulator activity at P-gp in human LCC6MDR cells overexpressing P-gp assessed as reversal of P-gp mediated PTX resistance by measuring paclitaxel IC50 incubated for 5 days by MTS assay
[3] = Negative allosteric modulator activity at human P-gp I1115Y mutant expressed in HEK293FT cells assessed as reversal of P-gp mediated PTX resistance by measuring paclitaxel IC50 incubated for 5 days by MTS assay (Rvb = 6.9 +/- 1.2 nM)
[4] = Negative allosteric modulator activity at human P-gp G1114I mutant expressed in HEK293FT cells assessed as reversal of P-gp mediated PTX resistance by measuring paclitaxel IC50 incubated for 5 days by MTS assay (Rvb = 10.2 +/- 2.4 nM)
[5] = Negative allosteric modulator activity at human P-gp I1115W mutant expressed in HEK293FT cells assessed as reversal of P-gp mediated PTX resistance by measuring paclitaxel IC50 incubated for 5 days by MTS assay (Rvb = 7.8 +/- 0.9 nM)
[6] = Negative allosteric modulator activity at human P-gp I1115F mutant expressed in HEK293FT cells assessed as reversal of P-gp mediated PTX resistance by measuring paclitaxel IC50 incubated for 5 days by MTS assay (Rvb = 663.1 +/- 10.2 nM)
[7] = Negative allosteric modulator activity at human wildtype P-gp expressed in HEK293FT cells assessed as reversal of P-gp mediated PTX resistance by measuring paclitaxel IC50 incubated for 5 days by MTS assay (Rvb = 540.5 +/- 20.3 nM)
[8] = Negative allosteric modulator activity at human P-gp I1115N mutant expressed in HEK293FT cells assessed as reversal of P-gp mediated PTX resistance by measuring paclitaxel IC50 incubated for 5 days by MTS assay (Rvb = 10.2 +/- 1.6 nM)
[9] = Negative allosteric modulator activity at human P-gp G1114L mutant expressed in HEK293FT cells assessed as reversal of P-gp mediated PTX resistance by measuring paclitaxel IC50 incubated for 5 days by MTS assay (Rvb = 4.5 +/- 1.1 nM)
[10] = Negative allosteric modulator activity at human P-gp Q1193K mutant expressed in HEK293FT cells assessed as reversal of P-gp mediated PTX resistance by measuring paclitaxel IC50 incubated for 5 days by MTS assay (Rvb = 466.2 +/- 72.3 nM)
[11] = Negative allosteric modulator activity at human P-gp G1114V mutant expressed in HEK293FT cells assessed as reversal of P-gp mediated PTX resistance by measuring paclitaxel IC50 incubated for 5 days by MTS assay (Rvb = 3.4 +/- 0.5 nM)
[12] = Negative allosteric modulator activity at human P-gp T1226A mutant expressed in HEK293FT cells assessed as reversal of P-gp mediated PTX resistance by measuring paclitaxel IC50 incubated for 5 days by MTS assay (Rvb = 6.3 +/- 2.1 nM)
[13] = Negative allosteric modulator activity at human P-gp Q1193T mutant expressed in HEK293FT cells assessed as reversal of P-gp mediated PTX resistance by measuring paclitaxel IC50 incubated for 5 days by MTS assay (Rvb = 523.6 +/- 33.7 nM)
[14] = Negative allosteric modulator activity at human P-gp Q1193E mutant expressed in HEK293FT cells assessed as reversal of P-gp mediated PTX resistance by measuring paclitaxel IC50 incubated for 5 days by MTS assay (Rvb = 395.8 +/- 13.4 nM)
[15] = Negative allosteric modulator activity at human P-gp T1226F mutant expressed in HEK293FT cells assessed as reversal of P-gp mediated PTX resistance by measuring paclitaxel IC50 incubated for 5 days by MTS assay (Rvb = 409.9 +/- 19.7 nM)
[16] = Negative allosteric modulator activity at human P-gp Q1193F mutant expressed in HEK293FT cells assessed as reversal of P-gp mediated PTX resistance by measuring paclitaxel IC50 incubated for 5 days by MTS assay (Rvb = 453.6 +/- 14.8 nM)
[17] = Negative allosteric modulator activity at human P-gp T1226Y mutant expressed in HEK293FT cells assessed as reversal of P-gp mediated PTX resistance by measuring paclitaxel IC50 incubated for 5 days by MTS assay (Rvb = 449.3 +/- 31.2 nM)
[18] = Negative allosteric modulator activity at human P-gp Q1193A mutant expressed in HEK293FT cells assessed as reversal of P-gp mediated PTX resistance by measuring paclitaxel IC50 incubated for 5 days by MTS assay (Rvb = 483.4 +/- 17.2 nM)
[19] = Negative allosteric modulator activity at human P-gp Q1193N mutant expressed in HEK293FT cells assessed as reversal of P-gp mediated PTX resistance by measuring paclitaxel IC50 incubated for 5 days by MTS assay (Rvb = 560.2 +/- 43.9 nM)
[20] = Negative allosteric modulator activity at human P-gp C1227A mutant expressed in HEK293FT cells assessed as reversal of P-gp mediated PTX resistance by measuring paclitaxel IC50 incubated for 5 days by MTS assay (Rvb = 352.1 +/- 30.6 nM)
[21] = Negative allosteric modulator activity at human P-gp I1115E mutant expressed in HEK293FT cells assessed as reversal of P-gp mediated PTX resistance by measuring paclitaxel IC50 incubated for 5 days by MTS assay (Rvb = 7.4 +/- 0.8 nM)
[22] = Negative allosteric modulator activity at human P-gp I1115K mutant expressed in HEK293FT cells assessed as reversal of P-gp mediated PTX resistance by measuring paclitaxel IC50 incubated for 5 days by MTS assay (Rvb = 6.2 +/- 2 nM)
[23] = Negative allosteric modulator activity at human P-gp L1113A mutant expressed in HEK293FT cells assessed as reversal of P-gp mediated PTX resistance by measuring paclitaxel IC50 incubated for 5 days by MTS assay (Rvb = 590 +/- 14.2 nM)
[24] = Negative allosteric modulator activity at human P-gp I1115M mutant expressed in HEK293FT cells assessed as reversal of P-gp mediated PTX resistance by measuring paclitaxel IC50 incubated for 5 days by MTS assay (Rvb = 9.8 +/- 0.9 nM)
[25] = Negative allosteric modulator activity at human P-gp I1115L mutant expressed in HEK293FT cells assessed as reversal of P-gp mediated PTX resistance by measuring paclitaxel IC50 incubated for 5 days by MTS assay (Rvb = 472 +/- 15.4 nM)
[26] = Negative allosteric modulator activity at human P-gp I1115A mutant expressed in HEK293FT cells assessed as reversal of P-gp mediated PTX resistance by measuring paclitaxel IC50 incubated for 5 days by MTS assay (Rvb = 7.5 +/- 2.4 nM)
[27] = Negative allosteric modulator activity at human P-gp G1114A mutant expressed in HEK293FT cells assessed as reversal of P-gp mediated PTX resistance by measuring paclitaxel IC50 incubated for 5 days by MTS assay (Rvb = 5.6 +/- 1.1 nM)
[28] = Negative allosteric modulator activity at human P-gp H1195A mutant expressed in HEK293FT cells assessed as reversal of P-gp mediated PTX resistance by measuring paclitaxel IC50 incubated for 5 days by MTS assay (Rvb = 3.4 +/- 1.5 nM)
[29] = Negative allosteric modulator activity at human P-gp Q1193C mutant expressed in HEK293FT cells assessed as reversal of P-gp mediated PTX resistance by measuring paclitaxel IC50 incubated for 5 days by MTS assay (Rvb = 359.4 +/- 22.3 nM)
[30] = Negative allosteric modulator activity at human P-gp T1226W mutant expressed in HEK293FT cells assessed as reversal of P-gp mediated PTX resistance by measuring paclitaxel IC50 incubated for 5 days by MTS assay (Rvb = 363.5 +/- 24.9 nM)

Q: With `O=c1cc(-c2ccc(OCCOCCN(Cc3ccc(C4(C(F)(F)F)N=N4)cc3)Cc3ccc(C4(C(F)(F)F)N=N4)cc3)cc2)oc2ccccc12` as the compound, how does the EC50 [1] read?
A: 3010 nM

Q: What about the IC50 [2] of the same compound?
A: 158 nM

Q: Which EC50 [1] does the source give for `O=c1cc(-c2ccc(O)cc2)oc2cc(O)cc(O)c12` [Naringenin, 18] here?
A: > 10000 nM

Q: With `C#CCOc1cccc2oc(-c3ccc(OCCOCCNCc4ccc(C5(C(F)(F)F)N=N5)cc4)cc3)cc(=O)c12` as the compound, how does the EC50 [1] read?
A: 66 nM

Q: And the IC50 [2]?
A: 1.4 nM

Q: With `O=c1cc(-c2ccc(OCCOCCNCc3ccccc3)cc2)oc2ccccc12` as the compound, how does the IC50 [3] read?
A: 8.2 nM

Q: And the IC50 [4]?
A: 8.6 nM

Q: What about the IC50 [5] of the same compound?
A: 8.3 nM

Q: And the IC50 [6]?
A: 43 nM

Q: And the IC50 [7]?
A: 7.4 nM

Q: What about the IC50 [8] of the same compound?
A: 9.9 nM

Q: And the IC50 [9]?
A: 4.8 nM

Q: And the IC50 [10]?
A: 48 nM

Q: And the IC50 [11]?
A: 3.5 nM

Q: And the IC50 [12]?
A: 4.6 nM

Q: And the IC50 [13]?
A: 61 nM

Q: What about the IC50 [14] of the same compound?
A: 93 nM

Q: And the IC50 [15]?
A: 6.9 nM

Q: And the IC50 [2]?
A: 3.8 nM

Q: What about the IC50 [16] of the same compound?
A: 81 nM

Q: And the IC50 [17]?
A: 7.2 nM

Q: And the IC50 [18]?
A: 112 nM

Q: And the IC50 [19]?
A: 11 nM

Q: What about the IC50 [20] of the same compound?
A: 5.2 nM

Q: What about the IC50 [21] of the same compound?
A: 7.6 nM

Q: What about the IC50 [22] of the same compound?
A: 7.8 nM

Q: What about the IC50 [23] of the same compound?
A: 4.2 nM

Q: And the IC50 [24]?
A: 7.9 nM

Q: And the IC50 [25]?
A: 10 nM

Q: And the IC50 [26]?
A: 6.3 nM

Q: And the IC50 [27]?
A: 4.3 nM

Q: And the IC50 [28]?
A: 4.7 nM

Q: And the IC50 [29]?
A: 29 nM

Q: What about the IC50 [30] of the same compound?
A: 6.4 nM

Q: For `C#CCNc1cc(C)cc2c(=O)cc(-c3ccc(OCCOCCNCc4ccc(C5(C(F)(F)F)N=N5)cc4)cc3)oc12`, which EC50 [1] is on record?
A: 733 nM

Q: And the IC50 [2]?
A: 280 nM

Q: With `O=c1cc(-c2ccc(OCCOCCOCCOCCOc3ccc(-c4cc(=O)c5ccccc5o4)cc3)cc2)oc2ccccc12` as the compound, how does the EC50 [1] read?
A: 360 nM

Q: For `C#CCNc1cc(C)cc2c(=O)cc(-c3ccc(OCCOCCN(Cc4ccc(C5(C(F)(F)F)N=N5)cc4)Cc4ccc(C5(C(F)(F)F)N=N5)cc4)cc3)oc12`, which IC50 [2] is on record?
A: 312 nM

Q: Which results are given for `O=c1cc(-c2ccc(OCCOCCNCc3ccc(C4(C(F)(F)F)N=N4)cc3)cc2)oc2ccccc12`?
A: EC50 [1]: 107 nM; IC50 [2]: 2.3 nM

Q: Which EC50 [1] does the source give for `C#CCN(CCOCCOc1ccc(-c2cc(=O)c3ccccc3o2)cc1)Cc1ccc(C2(C(F)(F)F)N=N2)cc1` here?
A: 602 nM

Q: What about the IC50 [2] of the same compound?
A: 57 nM

Q: What does the source list for `[N-]=[N+]=NCc1cc(CNCCOCCOc2ccc(-c3cc(=O)c4ccccc4o3)cc2)cc(N=[N+]=[N-])c1`?
A: EC50 [1]: 110 nM; IC50 [2]: 2.1 nM

Q: Which EC50 [1] does the source give for `O=c1cc(-c2ccc(OCCOCCOCCOCCOc3ccc(-c4cc(=O)c5c(O)cc(O)cc5o4)cc3)cc2)oc2cc(O)cc(O)c12` here?
A: 900 nM

From BindingDB's records for doi:10.1021/acs.jmedchem.2c02005 (The Hong Kong Polytechnic University, 2023)
